Results from paper PMC5259792, “A new serotonin 5-HT6 receptor antagonist with procognitive activity – Importance of a halogen bond interaction to stabilize the binding” (Scientific Reports, 2017).
Entries after “also recorded” stand apart in the source; their conditions may differ.

Assays:
human 5-HT6R = human 5-HT6R (Homo sapiens, UniProt P50406); experiment: 5-HT6R radioligand competitive binding assay ([3H]LSD)
human 5-HT6R WT = biological target: T1, human 5-HT6R WT (Homo sapiens, UniProt P50406); experiment: 5-HT6R AC assay (cAMP), wild type receptor; format: cell-based; settings: for disappearance of the 5-HT induced response / functional character at the human 5-HT6R in the AC assay / increase in cAMP levels by ligand alone (agonist effect): HEK-293 cells expressing human 5-HT6R; for IC50: read-out: pIC50, inhibition of 5-HT-induced stimulation of cAMP (converted)
T1 construct: host or cells: HEK-293

5-HT6R C110A = biological target: T2, 5-HT6R C110A (Homo sapiens, UniProt P50406, C110A); experiment: 5-HT6R AC assay (cAMP), C110A mutant; format: cell-based
T2 construct: host or cells: HEK-293

5-HT6R S193A = biological target: T3, 5-HT6R S193A (Homo sapiens, UniProt P50406, S193A); experiment: 5-HT6R AC assay (cAMP), S193A mutant; format: cell-based
T3 construct: host or cells: HEK-293

5-HT6R F285A = biological target: T4, 5-HT6R F285A (Homo sapiens, UniProt P50406, F285A); experiment: 5-HT6R AC assay (cAMP), F285A mutant; format: cell-based
T4 construct: host or cells: HEK-293

5-HT6R N288A = biological target: T5, 5-HT6R N288A (Homo sapiens, UniProt P50406, N288A); experiment: 5-HT6R AC assay (cAMP), N288A mutant; format: cell-based
T5 construct: host or cells: HEK-293

[1] = Metabolic stability in human liver microsomes; format: in vitro ADME; settings: HLMs, compound at 5 μM
Method: (§1) The high-affinity antagonist 7 was selected for the assessment of in vitro pharmacokinetic properties. Metabolic stability using rat and human liver microsomes (RLMs and HLMs, respectively) was determined as a measure of first-pass metabolism. Test compound was incubated at a concentration of 1 and 5 μM with RLM and HLM preparations, respectively. The half-life time (t1/2) was used to calculate the intrinsic clearance (CLint). […] An in vitro fluorescence-based inhibition assay was conducted with cytochrome P450 2D6 (CYP2D6), one of the most important enzymes involved in drug metabolism, using human recombinant microsomal CYP2D6 enzyme, AMMC {3-[2-(N,N-diethyl-N-methylamino)ethyl]-7-methoxy-4-methylcoumarin} as substrate, and quinidine as control inhibitor. After 30 min of incubation with compound 7 at a concentration of 10 μM, a remaining activity of 78% of the cytochrome was found.
(§2) RLM and HLM stability, HSA binding, and fluorescence-based CYP2D6 inhibition assays were performed according to previously reported procedures. Inhibition of hERG K^+ channel current was determined in an automated patch clamp assay using whole CHO-K1 cells at Eurofins Panlab (USA), according to previously published method.

[2] = Metabolic stability in rat liver microsomes; format: in vitro ADME
Method: as §1, §2

CYP2D6 = CYP2D6 (Homo sapiens, UniProt P10635); experiment: Fluorescence-based CYP2D6 inhibition assay; format: in vitro ADME; settings: human recombinant microsomal CYP2D6 enzyme, 30 min incubation, AMMC substrate, read-out: remaining activity of CYP2D6
Method: as §1, §2

[3] = biological target: human serum albumin (HSA) (Homo sapiens, UniProt P02768); experiment: HSA binding; format: in vitro ADME; settings: 5 μM
[4] = Parallel artificial membrane permeability assay (PAMPA); format: in vitro ADME; settings: PBS pH 7.4, 25 °C, read-out: permeability value (P)
hERG K+ channel = biological target: T6, hERG K+ channel (Homo sapiens, UniProt Q12809); experiment: hERG whole-cell patch clamp assay; format: cell-based; settings: CHO-K1 cells, n = 3, read-out: IC50, blockade of hERG K+ channel current
T6 construct: host or cells: CHO-K1

[5] = biological target: T7, serotonin 5-HT2A receptor (Homo sapiens, UniProt P28223); experiment: Selectivity panel radioligand binding, 5-HT2A; settings: [3H]ketanserin (0.5 nM), 60 min, RT, read-out: Inhibition (%) (displacement of radioligand)
T7 construct: Eurofins Cerep (France)

[6] = biological target: T8, serotonin 5-HT2B receptor (Homo sapiens, UniProt P41595); experiment: Selectivity panel radioligand binding, 5-HT2B; settings: [3H]mesulergine, 60 min, RT, read-out: Inhibition (%) (displacement of radioligand)
T8 construct: Eurofins Cerep (France)

[7] = tested on: rats (time-induced memory deficit); experiment: Novel object recognition task (NORT); format: in vivo, rat; settings: male Wistar rats, 60 min before each session
[8] = read-out: pIC50, inhibition of 5-HT-induced stimulation of cAMP (converted)

T1 sequence (P50406 whole entry): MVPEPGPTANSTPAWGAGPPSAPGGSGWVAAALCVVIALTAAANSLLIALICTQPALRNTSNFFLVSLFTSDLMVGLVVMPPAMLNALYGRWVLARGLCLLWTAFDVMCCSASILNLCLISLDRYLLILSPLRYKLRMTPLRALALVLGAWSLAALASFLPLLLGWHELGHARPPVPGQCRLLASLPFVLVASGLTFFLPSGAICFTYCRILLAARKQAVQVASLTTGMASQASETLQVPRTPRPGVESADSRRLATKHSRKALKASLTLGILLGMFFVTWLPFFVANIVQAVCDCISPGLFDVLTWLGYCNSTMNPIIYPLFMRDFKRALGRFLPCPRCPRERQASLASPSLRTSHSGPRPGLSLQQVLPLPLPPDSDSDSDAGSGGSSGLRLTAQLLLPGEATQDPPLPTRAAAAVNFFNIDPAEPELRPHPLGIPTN
human 5-HT6R, sequence (P50406 whole entry): as above
T4 sequence (P50406 whole entry F285A): as the sequence (P50406 whole entry) above, with F285A counted along it
T3 sequence (P50406 whole entry S193A): as the sequence (P50406 whole entry) above, with S193A counted along it
T5 sequence (P50406 whole entry N288A): as the sequence (P50406 whole entry) above, with N288A counted along it
T2 sequence (P50406 whole entry C110A): as the sequence (P50406 whole entry) above, with C110A counted along it
CYP2D6, sequence (P10635 whole entry): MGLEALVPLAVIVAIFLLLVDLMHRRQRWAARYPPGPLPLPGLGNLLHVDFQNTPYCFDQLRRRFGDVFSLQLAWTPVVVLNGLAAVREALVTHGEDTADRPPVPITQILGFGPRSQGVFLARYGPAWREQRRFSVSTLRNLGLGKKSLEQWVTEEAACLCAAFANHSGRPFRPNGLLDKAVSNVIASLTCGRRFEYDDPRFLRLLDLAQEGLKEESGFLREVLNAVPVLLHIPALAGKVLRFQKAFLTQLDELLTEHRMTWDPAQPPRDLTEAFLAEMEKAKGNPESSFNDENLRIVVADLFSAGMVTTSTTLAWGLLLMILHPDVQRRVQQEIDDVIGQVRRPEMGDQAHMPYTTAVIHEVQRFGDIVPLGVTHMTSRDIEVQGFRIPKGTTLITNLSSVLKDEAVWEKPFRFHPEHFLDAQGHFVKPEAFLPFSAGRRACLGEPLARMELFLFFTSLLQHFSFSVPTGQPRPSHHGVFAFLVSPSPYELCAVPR
human serum albumin (HSA), sequence (P02768 25-609): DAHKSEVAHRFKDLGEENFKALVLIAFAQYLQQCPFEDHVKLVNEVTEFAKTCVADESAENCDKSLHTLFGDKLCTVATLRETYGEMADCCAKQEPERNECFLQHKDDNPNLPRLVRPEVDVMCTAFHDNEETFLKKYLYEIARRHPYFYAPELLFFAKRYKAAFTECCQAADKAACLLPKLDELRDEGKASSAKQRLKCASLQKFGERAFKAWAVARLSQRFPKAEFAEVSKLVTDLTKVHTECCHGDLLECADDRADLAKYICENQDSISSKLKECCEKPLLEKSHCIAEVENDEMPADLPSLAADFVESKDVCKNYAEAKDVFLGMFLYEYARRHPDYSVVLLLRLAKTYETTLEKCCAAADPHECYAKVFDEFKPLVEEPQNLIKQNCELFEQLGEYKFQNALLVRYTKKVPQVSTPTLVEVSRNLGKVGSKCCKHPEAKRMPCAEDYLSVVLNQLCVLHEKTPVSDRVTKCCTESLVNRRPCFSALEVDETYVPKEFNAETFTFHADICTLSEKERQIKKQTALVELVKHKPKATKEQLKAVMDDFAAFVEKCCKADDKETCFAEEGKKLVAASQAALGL
T7 sequence (P28223 whole entry): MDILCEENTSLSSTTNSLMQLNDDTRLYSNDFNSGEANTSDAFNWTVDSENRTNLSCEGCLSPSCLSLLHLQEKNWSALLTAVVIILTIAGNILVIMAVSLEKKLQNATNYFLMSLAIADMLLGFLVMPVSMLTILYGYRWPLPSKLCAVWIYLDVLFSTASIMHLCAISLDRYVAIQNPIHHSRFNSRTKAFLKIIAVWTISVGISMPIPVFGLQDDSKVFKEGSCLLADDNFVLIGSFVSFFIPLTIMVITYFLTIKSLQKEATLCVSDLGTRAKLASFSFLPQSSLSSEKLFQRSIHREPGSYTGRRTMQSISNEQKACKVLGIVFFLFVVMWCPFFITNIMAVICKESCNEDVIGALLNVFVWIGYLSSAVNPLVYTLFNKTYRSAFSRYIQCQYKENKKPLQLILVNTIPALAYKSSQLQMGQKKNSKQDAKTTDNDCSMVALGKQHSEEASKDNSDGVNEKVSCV
T6 sequence (Q12809 whole entry): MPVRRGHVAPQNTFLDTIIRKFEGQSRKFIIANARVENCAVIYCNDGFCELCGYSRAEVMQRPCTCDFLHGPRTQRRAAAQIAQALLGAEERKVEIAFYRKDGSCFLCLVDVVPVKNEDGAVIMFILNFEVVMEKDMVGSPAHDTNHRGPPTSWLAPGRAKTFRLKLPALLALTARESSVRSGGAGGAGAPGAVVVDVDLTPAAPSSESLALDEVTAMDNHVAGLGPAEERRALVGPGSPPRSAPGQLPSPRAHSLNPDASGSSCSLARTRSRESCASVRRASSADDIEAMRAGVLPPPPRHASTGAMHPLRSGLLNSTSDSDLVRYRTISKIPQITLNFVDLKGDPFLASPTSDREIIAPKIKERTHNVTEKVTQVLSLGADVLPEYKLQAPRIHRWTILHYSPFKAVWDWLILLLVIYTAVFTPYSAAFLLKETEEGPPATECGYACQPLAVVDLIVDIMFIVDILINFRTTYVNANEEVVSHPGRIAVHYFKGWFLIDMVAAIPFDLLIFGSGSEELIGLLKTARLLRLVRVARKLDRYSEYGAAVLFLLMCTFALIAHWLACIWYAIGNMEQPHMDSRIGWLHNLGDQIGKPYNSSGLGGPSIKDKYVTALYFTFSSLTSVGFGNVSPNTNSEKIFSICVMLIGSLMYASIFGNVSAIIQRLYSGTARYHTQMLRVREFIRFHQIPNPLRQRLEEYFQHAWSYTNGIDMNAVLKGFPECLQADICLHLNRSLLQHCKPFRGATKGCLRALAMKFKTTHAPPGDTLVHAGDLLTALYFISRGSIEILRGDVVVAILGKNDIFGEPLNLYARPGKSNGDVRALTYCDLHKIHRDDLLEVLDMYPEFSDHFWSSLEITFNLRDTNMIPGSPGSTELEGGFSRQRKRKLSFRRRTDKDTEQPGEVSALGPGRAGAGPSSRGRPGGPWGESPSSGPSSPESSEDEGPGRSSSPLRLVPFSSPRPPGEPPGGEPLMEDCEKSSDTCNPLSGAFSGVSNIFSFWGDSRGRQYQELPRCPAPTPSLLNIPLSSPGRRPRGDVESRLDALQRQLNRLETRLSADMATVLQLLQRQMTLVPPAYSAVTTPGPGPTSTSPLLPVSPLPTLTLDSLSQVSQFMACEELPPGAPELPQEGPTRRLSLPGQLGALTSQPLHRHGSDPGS
T8 sequence (P41595 whole entry): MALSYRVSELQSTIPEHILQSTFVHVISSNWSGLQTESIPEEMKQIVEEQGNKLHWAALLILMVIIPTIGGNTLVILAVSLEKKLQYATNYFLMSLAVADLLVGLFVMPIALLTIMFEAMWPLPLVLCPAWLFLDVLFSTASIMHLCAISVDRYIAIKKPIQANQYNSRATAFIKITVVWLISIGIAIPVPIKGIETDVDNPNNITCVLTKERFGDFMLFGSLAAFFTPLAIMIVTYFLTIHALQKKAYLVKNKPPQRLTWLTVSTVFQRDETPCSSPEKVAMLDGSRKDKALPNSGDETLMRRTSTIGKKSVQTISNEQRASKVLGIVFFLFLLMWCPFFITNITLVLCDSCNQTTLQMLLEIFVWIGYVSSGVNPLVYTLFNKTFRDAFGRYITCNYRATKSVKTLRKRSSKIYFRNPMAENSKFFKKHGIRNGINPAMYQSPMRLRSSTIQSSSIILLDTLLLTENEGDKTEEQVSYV

SMILES	melting point	Ki (human 5-HT6R) [nM]	also measured
CN(C)CCn1cnc2cc(NS(=O)(=O)c3ccc4c(Cl)cccc4c3)ccc21 [Compound 6]	92 to 95 °C	112	
Cc1c(S(=O)(=O)Nc2cccc3c2ncn3CCN(C)C)sc2ccc(Cl)cc12 [Compound 8]	90 to 93 °C	89	
CN(C)CCn1cnc2ccc(NS(=O)(=O)c3ccc4cc(Cl)ccc4c3)cc21 [Compound 14]	181 °C (dec.)	> 500	
CN(C)CCn1cnc2ccc(NS(=O)(=O)c3cccc4c(Cl)cccc34)cc21 [Compound 15]	223 °C (dec.)	238	
CN(C)CCn1cnc2ccc(NS(=O)(=O)c3ccc4ccccc4c3)cc21 [Compound 18]	207 to 208 °C	144	
Cc1c(S(=O)(=O)Nc2ccc3ncn(CCN(C)C)c3c2)sc2ccc(Cl)cc12 [Compound 10]	114 to 115 °C	25	disappearance of the 5-HT induced response (human 5-HT6R WT): ≥ 95%; functional character at the human 5-HT6R in the AC assay (human 5-HT6R WT): antagonists; increase in cAMP levels by ligand alone (agonist effect) (human 5-HT6R WT): did not induce a substantial increase in cAMP levels; IC50 (human 5-HT6R WT): 50.1 nM
Cc1c(S(=O)(=O)Nc2ccc3ncn(CCN(C)C)c3c2)sc2ccc(Br)cc12 [Compound 17]		37	
CN(C)CCn1cnc2c(NC(=O)c3ccccc3)cccc21 [Compound S7]	109 to 112 °C	> 500	
Cc1c(S(=O)(=O)Nc2ccc3c(c2)ncn3CCN(C)C)sc2ccc(Cl)cc12 [Compound 9]	90 to 93 °C	245	
CN(C)CCn1cnc2ccc(NS(=O)(=O)c3ccc4c(Br)cccc4c3)cc21 [Compound 16]		12	
CN(C)CCn1cnc2ccc(NS(=O)(=O)c3ccc4c(Cl)cccc4c3)cc21 [Compound 7, 5-Chloro-N-{1-[2-(dimethylamino)ethyl]-1H-benzimidazol-6-yl}naphthalene-2-sulfonamide]		9	disappearance of the 5-HT induced response (human 5-HT6R WT): ≥ 95%; functional character at the human 5-HT6R in the AC assay (human 5-HT6R WT): antagonists; increase in cAMP levels by ligand alone (agonist effect) (human 5-HT6R WT): did not induce a substantial increase in cAMP levels; IC50 (human 5-HT6R WT): 15.8 nM; IC50 (5-HT6R C110A; [8]): 158 nM; IC50 (5-HT6R S193A; [8]): 1260 nM; IC50 (5-HT6R F285A; [8]): ~31600 nM; IC50 (5-HT6R N288A; [8]): 126 nM; CLint scaled at 5 μM ([1]; calculated from t1/2, read-out: intrinsic clearance (CLint)): 8 mL/min/kg; half-life at 5 μM ([1]; read-out: half-life time (t1/2)): 77.5 min; half-life at 1 μM ([2]; RLMs, compound at 1 μM, read-out: half-life time (t1/2)): 20.7 min; CLint scaled at 1 μM ([2]; read-out: intrinsic clearance (CLint)): 67.8 mL/min/kg; activity at 30 min, 10 µM (CYP2D6): 78%; binding to HSA [3]: 70%; Papp at 5 h, 200 μM [4]: 12 ×10⁻⁶ cm/s; IC50 (hERG K+ channel): > 10000 nM; inhibition at 1 µM [5]: < 23%; inhibition at 1 µM [6]: 16%; effect on time-induced memory deficit in NORT (exploration of novel vs familiar object) ([7]; 1 mg/kg, ip, 1 mg/kg): in vivo procognitive activity; also recorded: animals spent more time exploring the novel object than the familiar one; also recorded: significant reversal of the time-delay induced memory deficit
CN(C)CCCn1cnc2cc(C(=O)Nc3ccccc3)ccc21 [Compound S2]	108 to 110 °C	> 500	
Nc1c2c(nc3ccccc13)CCCC2 [tacrine, reference compound]			effect on time-induced memory deficit in NORT (exploration of novel vs familiar object) ([7]; 0.5 mg/kg, po): animals spent more time exploring the novel object than the familiar one
CN(C)CCn1cnc2cccc(NS(=O)(=O)c3ccccc3)c21 [Compound S11]	142 to 145 °C	> 500	
Cc1c(S(=O)(=O)Nc2ccc3ncn(CCN(C)C)c3c2)sc2ccccc12 [Compound 19]	175 to 176 °C	195	
CN(C)CCn1cnc2cc(NC(=O)c3ccccc3)ccc21 [Compound S8]	113 to 115 °C	> 500	
CN(C)CCn1cnc2ccc(NS(=O)(=O)c3c(Cl)nc4sccn34)cc21 [Compound 13]	139 to 141 °C	182 ± 6	
CN(C)CCn1cnc2ccc(NS(=O)(=O)c3ccccc3)cc21 [Compound 4]	138 to 140 °C	200 ± 10	
CN(C)CCn1cnc2ccc(NC(=O)c3ccccc3)cc21 [Compound S9]	115 to 117 °C	> 500	
CC(C)NCC(O)COc1cccc2ccccc12 (centres unmarked) [propranolol, reference compound]			Papp at 5 h, 200 μM [4]: 25 ×10⁻⁶ cm/s
CN(C)CCn1cnc2c(NS(=O)(=O)c3ccccc3)cccc21 [Compound 2]	121 to 123 °C	243 ± 15	
CN(C)CCn1cnc2cccc(NC(=O)c3ccccc3)c21 [Compound S10]	98 to 101 °C	> 500	
CN(C)CCn1cnc2cc(NS(=O)(=O)c3ccccc3)ccc21 [Compound 3]	178 to 180 °C	213 ± 8	
CN(C)CCn1cnc2cc(NS(=O)(=O)c3c(Cl)nc4sccn34)ccc21 [Compound 12]	99 to 101 °C	33 ± 3	
CN(C)CCCn1cnc2c(C(=O)Nc3ccccc3)cccc21 [Compound S1]	104 to 106 °C	> 500	
CN(C)CCn1cnc2c(NS(=O)(=O)c3ccc4c(Cl)cccc4c3)cccc21 [Compound 5]	76 to 78 °C	64	
CN(C)CCn1cnc2c(NS(=O)(=O)c3c(Cl)nc4sccn34)cccc21 [Compound 11]	71 to 74 °C	200 ± 13	
NCCc1c[nH]c2ccc(O)cc12 [Compound 5-HT, 5-HT]			cAMP release (5-HT) Efficacy (human 5-HT6R WT; 5-HT6R WT): agonist; cAMP release (5-HT) Efficacy (5-HT6R C110A; 5-HT6R C110A): agonist; cAMP release (5-HT) Efficacy (5-HT6R S193A; 5-HT6R S193A): agonist; cAMP release (5-HT) Efficacy (5-HT6R F285A; 5-HT6R F285A): agonist; cAMP release (5-HT) Efficacy (5-HT6R N288A; 5-HT6R N288A): agonist
